Changes are numbered by the printed parent chain. Read-outs that look alike come from different tables or passages of the source.

Among the targets are BRD2(1) (Homo sapiens, UniProt P25440); BRD4(2) (Homo sapiens, UniProt O60885); BRDT(1) (Homo sapiens, UniProt Q58F21); CREBBP (Homo sapiens, UniProt Q92793).
What all share (assay): BROMOscan ligand-binding assay
The target in another test is T1, BAZ2A (Homo sapiens, UniProt Q9UIF9).
T1 sequence (Q9UIF9 1793-1897 limits assumed): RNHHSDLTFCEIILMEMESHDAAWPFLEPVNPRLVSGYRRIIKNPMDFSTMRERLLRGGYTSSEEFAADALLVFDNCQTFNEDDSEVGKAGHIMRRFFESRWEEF

The target in a further test is T2, BRD9 (Homo sapiens, UniProt Q9H8M2).
T2 sequence (Q9H8M2 136-240 limits assumed): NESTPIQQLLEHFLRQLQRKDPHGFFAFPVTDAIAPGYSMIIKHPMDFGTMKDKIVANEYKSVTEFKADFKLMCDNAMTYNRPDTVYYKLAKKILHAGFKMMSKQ

The target in a further test is T3, TAF1(2) (Homo sapiens, UniProt P21675).
T3 sequence (P21675 1519-1628 limits assumed): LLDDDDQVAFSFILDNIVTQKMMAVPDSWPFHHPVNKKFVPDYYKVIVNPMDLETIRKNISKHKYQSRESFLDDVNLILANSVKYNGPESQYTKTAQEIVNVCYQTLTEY

Another test has as its target T4, TAF1L(2) (Homo sapiens, UniProt Q8IZX4).
T4 sequence (Q8IZX4 1517-1626 limits assumed): T3 sequence (P21675 1519-1628 limits assumed) with V46M, M51V, V102I, L107I

The target in the next test is T5, TRIM24 (Homo sapiens, UniProt O15164).
T5 sequence (O15164 899-1004 limits assumed): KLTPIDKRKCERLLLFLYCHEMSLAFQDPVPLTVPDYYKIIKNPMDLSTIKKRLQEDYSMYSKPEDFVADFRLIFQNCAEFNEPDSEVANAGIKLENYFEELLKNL

In a further test the target is T6, TRIM33(PHD,BRD) (Homo sapiens, UniProt Q9UPN9).
T6 sequence (Q9UPN9 882-1087 limits assumed): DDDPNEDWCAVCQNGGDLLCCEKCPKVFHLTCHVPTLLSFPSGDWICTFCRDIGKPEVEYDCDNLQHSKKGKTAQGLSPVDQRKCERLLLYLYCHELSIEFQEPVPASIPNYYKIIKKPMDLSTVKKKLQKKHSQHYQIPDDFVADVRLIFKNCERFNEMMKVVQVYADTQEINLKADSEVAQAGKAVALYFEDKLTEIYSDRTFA

[1] abbreviates: KD (BROMOscan), sheet prints no unit (nM).

CREBBP, sequence (Q92793 1085-1192 limits assumed): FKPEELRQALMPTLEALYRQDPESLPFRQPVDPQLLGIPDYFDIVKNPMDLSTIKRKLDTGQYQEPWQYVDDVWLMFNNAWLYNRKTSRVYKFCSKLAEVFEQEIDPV
BRD2(1), sequence (P25440 74-180 limits assumed): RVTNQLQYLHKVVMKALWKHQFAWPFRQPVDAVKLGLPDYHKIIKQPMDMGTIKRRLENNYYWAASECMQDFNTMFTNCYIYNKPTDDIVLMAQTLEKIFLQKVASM
Text for BAZ2A: (§1) BROMOscan is a binding assay based on the well-known KINOMEscan technology. This assay measures the binding of a DNA-tagged bromodomain to an immobilized BRD ligand. If an inhibitor is present, it will compete with the bromodomain binding to the immobilized ligand, resulting in reduction of a quantitative PCR (qPCR) signal in a dose-dependent manner.
Text for BRD2(1): as §1
Text for BRD4(2): as §1
Text for BRD9: as §1
Text for BRDT(1): as §1
Text for CREBBP: as §1
Text for TAF1(2): as §1
Text for TAF1L(2): as §1
Text for TRIM24: as §1
Text for TRIM33(PHD,BRD): as §1

For the compound `CCCS(=O)(=O)c1nc(NC2CC2)cc(-c2ccc3c(ccn3C3CC(C)(C)NC(C)(C)C3)c2)n1` [NVS-CECR2-1], the Kd at BAZ2A was more than 30 µM; on BRD2(1), more than 30 µM; on BRD4(2), 5.7 µM; on BRD9, 2100 nM; on BRDT(1), more than 30000 nM; at CREBBP, more than 30000 nM. Besides, the Kd is 2.1 µM on TAF1(2), 9.6 µM on TAF1L(2), more than 30000 nM on TRIM24 and more than 30000 nM on TRIM33(PHD,BRD).
For the compound `COc1cc2c(cc1NS(=O)(=O)c1ccc(Br)cc1C)n(C)c(=O)n2C` [OF-1], the Kd at BAZ2A (BAZ2A) stood at 13 µM; on BRD2(1) (BRD2(1)), 7.4 µM; on BRD9 (BRD9), 2900 nM; at BRDT(1) (BRDT(1)), 3500 nM; on CREBBP (CREBBP) it was 45000 nM; at TAF1(2) (TAF1(2)), 4.7 µM. For the same compound, the Kd on TAF1L(2) (TAF1L(2)) was found to be 5.3 µM; at TRIM24 (TRIM24(Bromo.)), 1900 nM; at TRIM33(PHD,BRD) (TRIM33(PHD,Bromo.)) it was 40000 nM.
Take `O=C(C=CN1[C@H]2CC[C@@H]1c1ncnc(NC3CC3)c1C2)c1ccccc1O` [PFI-3 D1]: the Kd on BAZ2A (BROMOscan, BAZ2A) was more than 30 µM; on BRD2(1) (BROMOscan, BRD2(1)) it was more than 30 µM; at BRD4(2) (BROMOscan, BRD4(2)), more than 30 µM; on BRD9 (BROMOscan, BRD9) it was more than 30000 nM; on BRDT(1) (BROMOscan, BRDT(1)), 24000 nM; on CREBBP (BROMOscan, CREBBP), more than 30000 nM. Further, the Kd at TAF1(2) (BROMOscan, TAF1(2)) is more than 30 µM; at TAF1L(2) (BROMOscan, TAF1L(2)), more than 30 µM; on TRIM24 (BROMOscan, TRIM24(Bromo.)), more than 30000 nM; on TRIM33(PHD,BRD) (BROMOscan, TRIM33(PHD,Bromo.)), more than 30000 nM.
Regarding `O=C(C=CN1CC2CC1CN2c1ccccn1)c1ccccc1O` (stereo not drawn) [PFI-3], the Kd at BAZ2A is more than 100 µM; on BRD9 (setting [1]), more than 30000 nM; at BRD9 (KD, BRD9), more than 100000 nM; at BRDT(1) (setting [1]), more than 30000 nM; on BRDT(1) (KD, BRDT(1)), more than 100000 nM; at CREBBP (setting [1]), more than 30000 nM. For the same compound, the Kd at CREBBP (KD, CREBBP) was more than 100000 nM; at TRIM24 (setting [1]), more than 30000 nM; at TRIM24 (KD, TRIM24(Bromo.)), more than 100000 nM; on TRIM33(PHD,BRD) (setting [1]) it was more than 30000 nM; at TRIM33(PHD,BRD) (KD, TRIM33(PHD,Bromo.)), more than 100000 nM.
With `COc1ccc(CCc2nc3cc(-c4c(C)noc4C)ccc3n2C[C@H](C)N2CCOCC2)cc1Cl` [SGC-CBP30], the Kd was determined as 69 µM on BAZ2A; 0.62 µM on BRD2(1); 6.2 µM on BRD4(2); 6100 nM at BRD9 (KD, BROMOscan, BRD9); 2600 nM on BRDT(1) (KD, BROMOscan, BRDT(1)); 3.1 µM at TAF1(2). Moreover, the Kd was 7.1 µM at TAF1L(2); 12000 nM at TRIM24 (KD, BROMOscan, TRIM24(Bromo.)); more than 30000 nM at TRIM33(PHD,BRD) (setting [1]); more than 100000 nM at TRIM33(PHD,BRD) (KD, BROMOscan, TRIM33(PHD,Bromo.)).
For `O=C(O)c1ccccc1O` [Salicylic Acid], the Kd on BAZ2A is more than 14000 µM; at BRD2(1) it was more than 14000 µM; on BRD4(2) it was more than 14000 µM; at BRD9 (KD, BRD9), more than 1.4e+07 nM; on BRDT(1) (KD, BRDT(1)) it was more than 1.4e+07 nM; at CREBBP (KD, CREBBP), more than 1.4e+07 nM. For the same compound, the Kd at TAF1(2) was more than 14000 µM; on TAF1L(2) it was more than 14000 µM; at TRIM24 (KD, TRIM24(Bromo.)), more than 1.4e+07 nM; on TRIM33(PHD,BRD) (KD, TRIM33(PHD,Bromo.)), more than 1.4e+07 nM.

The record behind these values is paper PMC6478789, “A chemical toolbox for the study of bromodomains and epigenetic signaling” (Nature Communications, 2019).
